Assay results from publication PMC9023544, “Ketone-selenoesters as potential anticancer and multidrug resistance modulation agents in 2D and 3D ovarian and breast cancer in vitro models” (Scientific Reports, 2022).

Experiments:
Assay type in all cases: cell-based, human
[1] = test system: HOC; experiment: Oxidation stress (ROS), Muse Oxidative Stress Kit; conditions: 1 µM (DMSO 5% V/V), 24 h
Description: Selenoesters (K3, K4, K7) were tested for their ability to generate reactive oxygen species (ROS). HOC was exposed to selenoesters in concentration of 1 µM for 24 h. DMSO (5% V/V) was used as a positive control. The required volume of DMSO (1% V/V) was added to untreated cells. ROS are essential biomolecules in cellular regulation as a part of the defence mechanisms. On the other hand, their participation in cell signalling may affect apoptosis and other death pathways. In the assay, dihydroethidium (DHE) reacts with superoxide anions by forming DNA-binding fluorophore ethidium bromide. Based on fluorescence, the cell population can be distinguished into ROS negative and ROS positive cells containing oxygen radicals.
To determine the oxidation stress potential of selected selenoesters, HOC were seeded into 24-well plates at a density 2 × 10^5 cells/mL for 24 h according to the above mentioned procedure. Afterwards, the plates were washed 1 ×with PBS and fresh DMEM medium containing compounds K3, K4, K7 (final concentration—1 µM) was added for 24 h, except for the positive and negative control. […] as the oxidation stress inductor. After incubation, the cells were washed 1× with PBS and released from the surface by using a trypsin–EDTA solution. After trypsin inhibition by medium addition, the cell suspensions were centrifuged (100×g, 5 min, 25 °C), supernatants were removed, and cell pellets resuspended in 1× assay buffer. All reagents were prepared immediately before use. Afterwards, 10 µL of the cell suspension were mixed with 190 µL of working solution (Muse Oxidative stress reagent) and stained for 30 min at 37 °C. Subsequently, the […] were analysed by Guava Muse Cell Analyzer. Oxidation stress detection was performed following the instructions provided by the manufacturer.

[2] = test system: HOC/ADR (sub-line resistant to Adriamycin, A2780/ADR); experiment: Cytotoxic activity, 2D, resazurin, 72 h; conditions: for IC50 / IC10: Homo sapiens, A2780 ADR, 72 h; for IC50: read-out: HOC/ADR IC50; for IC10: read-out: IC10 of compounds; for SI HEK293/HOC/ADR: IC50 HEK293 / IC50 HOC/ADR; for CS (collateral sensitivity index): IC50 HOC / IC50 HOC/ADR
Description: (§1) The cytotoxic potential of selenoesters was tested on several cancer cell lines—HOC (human parental ovarian adenocarcinoma, HOC, A2780, Sigma-Aldrich), HOC/ADR (sub-line resistant to Adriamycin, A2780/ADR, Sigma-Aldrich), MCF-7 (human breast adenocarcinoma, ATCC®, HTB-22TM), MCF-7/PAX (resistant sub-line established by gradual adaptation of parental cells to increased concentration of paclitaxel; kindly provided by Division of Cell and Molecular Biology, Third Faculty of Medicine, Charles University, Czech Republic) and on one non-cancerous cell line—HEK293 (human embryonic kidney cell line, Leibniz Institute, DSMZ-German Collection of Microorganisms and Cell Cultures GmbH). All mentioned cell lines were authenticated using short tandem repeat (STR) profiling. Cell lines were cultivated in DMEM medium (10% FBS, 1× antibiotic antimycotic solution), except for HEK293 cell line which was cultivated without antibiotics. In case of the resistant cell lines, the medium was supplemented with a required concentration of cytostatics to maintain resistance (HOC/ADR—100 nM Adriamycin; MCF-7/PAX—300 nM paclitaxel). All cells were cultivated in a CO2 incubator (5% CO2, 37 °C, Thermo Fisher Scientific).
(§2) For the experiment, the cells at passage number 5–20 were seeded at a 1 × 10^5 cells/mL concentration into 96-well plates to 100 µL final volume. The final concentration range of the compounds was 0.63–20 µM. After an incubation of 72 h, the plates were washed 1× with PBS and resazurin solution (0.03 mg/mL in 1× PBS) was added. After 1 h of incubation, the fluorescence signal was recorded (ex./em. 560/590 nm).
(§3) The selectivity index (SI) was determined as the ratio of IC50 value for the non-cancerous cells to IC50 for the cancer cell line. For resistant cell lines, the collateral sensitivity (CS) was calculated as the ratio of IC50 value in sensitive tumour cells to IC50 in the resistant cancer cell line. In both cases, the selectivity is considered as: (1) strongly selective when SI or CS value is above 6, (2) moderately selective when SI or CS is between 3 and 6, (3) slightly selective when SI or CS is between 1 and 3 and (4) non-selective when SI or CS is less than 1[23].

[3] = test system: MCF-7/PAX (paclitaxel-resistant sub-line); experiment: Cytotoxic activity, 2D, resazurin, 72 h; conditions: for IC50: Homo sapiens, MCF7, 72 h, read-out: MCF-7/PAX IC50; for SI HEK293/MC7-7/PAX: IC50 HEK293 / IC50 MCF-7/PAX; for CS (collateral sensitivity index): IC50 MCF-7 / IC50 MCF-7/PAX; for IC10 of compounds: MCF-7/PAX
Description: as §1, §2, §3

SMILES: CC(=O)C[Se]C(=O)c1ccc(Br)cc1 [K3]
- ROS(+) cells [1]: 29.1 ± 4.2 %
- ROS(−) cells [1]: 70.8 ± 4.2 %
- IC50 [2]: 2600 ± 100 nM
- IC10 [2]: 2000 nM
- SI HEK293/HOC/ADR [2]: 0.9 ± 0.0
- CS (collateral sensitivity index) [2]: 0.7 ± 0.1
- IC50 [3]: 2100 ± 100 nM
- SI HEK293/MC7-7/PAX [3]: 1.1 ± 0.1
- CS (collateral sensitivity index) [3]: 1.0 ± 0.3
- IC10 of compounds [3]: 1200 nM

SMILES: CC(=O)C[Se]C(=O)c1ccccc1C(F)(F)F [K4]
- ROS(+) cells [1]: 14.5 ± 1.5 %
- ROS(−) cells [1]: 85.5 ± 1.6 %
- IC50 [2]: 3600 ± 100 nM
- IC10 [2]: 2900 nM
- SI HEK293/HOC/ADR [2]: 1.5 ± 0.2
- CS (collateral sensitivity index) [2]: 0.6 ± 0.0
- IC50 [3]: 3300 ± 300 nM
- SI HEK293/MC7-7/PAX [3]: 1.6 ± 0.2
- CS (collateral sensitivity index) [3]: 0.6 ± 0.0
- IC10 of compounds [3]: 1800 nM

SMILES: CC(=O)C[Se]C(=O)c1ccc(C(C)(C)C)cc1 [K7]
- ROS(+) cells [1]: 22.3 ± 0.4 %
- ROS(−) cells [1]: 77.7 ± 0.4 %
- IC50 [2]: 3100 ± 300 nM
- IC10 [2]: 1800 nM
- SI HEK293/HOC/ADR [2]: 0.5 ± 0.1
- CS (collateral sensitivity index) [2]: 0.4 ± 0.1
- IC50 [3]: 2400 ± 100 nM
- SI HEK293/MC7-7/PAX [3]: 0.6 ± 0.1
- CS (collateral sensitivity index) [3]: 0.8 ± 0.1
- IC10 of compounds [3]: 1300 nM
